Values of other authors as cited in PMC7485629 (Biochemistry, 2019).
Read-outs that look alike come from different tables or passages of the source.

Test system: N-terminus of PD-L1
Conditions: crystal structure

Row | Compound | interaction with N-terminus of PD-L1 (ref [66]) | interaction with N-terminus of PD-L1 (ref [21])
1 | Cc1c(COc2cc(F)c(CNC[C@@H](O)CC(=O)O)cc2F)cccc1-c1ccc2c(c1)OCCO2 [BMS-200] | hydrogen bond with Thr20 | 
2 | COc1nc(OCc2cccc(-c3ccccc3)c2C)ccc1CNCCNC(C)=O [BMS-202] |  | water-mediated interaction with the backbone carbonyl of Phe19
